Data set [1] can be described thus: Human liver microsomal stability of compound in microsomal protein, PBS buffer pH 7.4, NADPH, glucose-6-phosphate and glucose-6-phosphate dehydrogenase media. Aliquotes were taken at 5 time points and after stopping the reaction, supernatants were analyzed using HPLC coupled with a tandem mass spectrometer. The elimination constant, half-life, and intrinsic clearance are determined as results using linear regression analysis. The assay has been performed by Enamine biological services, Bienta Ltd.The protocol is publicly available: dx.doi.org/10.17504/protocols.io.5qpvokdb9l4o/v1. It is filed as ADME, microsomes, Microsome. The note with it: for half-life / microsomal CLint: liver microsomes.

A short description of data set [2]: Mouse liver microsomal stability of compound in microsomal protein, PBS buffer pH 7.4, NADPH, glucose-6-phosphate and glucose-6-phosphate dehydrogenase media. Aliquotes were taken at 5 time points and after stopping the reaction, supernatants were analyzed using HPLC coupled with a tandem mass spectrometer. The elimination constant, half-life, and intrinsic clearance are determined as results using linear regression analysis. The assay has been performed by Enamine biological services, Bienta Ltd.The protocol is publicly available: dx.doi.org/10.17504/protocols.io.5qpvokdb9l4o/v1. It is filed as ADME, microsomes, Microsome. To be noted: for half-life / microsomal CLint: liver microsomes; for Remaining / Remaining (without cofactor) / CLint / T1/2: microsomes. In general terms: Liver microsomes are a subcellular fraction often used to study metabolism.

Values joined by “and” are separate entries in the source; they are usually repeats but may differ in a detail not shown here. Equal entries are not always repeated.
For Remaining (without cofactor) in this document: time not given here.
For Remaining in this document: time not given here.

For `CC(C)[C@H](Nc1ncnc2[nH]c(C(=O)N[C@H]3CCN(C)C3)cc12)c1ccc2c(c1)S(=O)(=O)CCC2`, in data set [1], the half-life is 150 min and the microsomal CLint came to 11 µL/min/mg. Also, in data set [1] (microsomes), the Remaining is listed as 80% and the “Remaining (without cofactor)” value is 98%. Besides, in data set [2], the half-life came out at 1540 min, the microsomal CLint stood at 1 µL/min/mg, the Remaining was determined as 98% and the “Remaining (without cofactor)” value was determined as 97%.

As for `Cn1ncc(-c2cc3c(N[C@@H](c4ccc5c(n4)OCCO5)C(C)(C)C)ncnc3[nH]2)c1C#N`, the “Remaining (without cofactor)” value in data set [1] (microsomes) is 91% and 108% and 85%. Also, in data set [2], the half-life stood at 8 min; the microsomal CLint was found to be 209 µL/min/mg; the CLint is 188 µL/min/mg and 226 µL/min/mg; the Remaining was 4% and 5% and 2%. In addition, in data set [2], the “Remaining (without cofactor)” value was 101% and 106% and 94%; the T1/2 is 8.9 min and 7.4 min.

In data set [1], `CC(C)[C@H](Nc1ncnc2[nH]ccc12)c1ccc2c(c1)S(=O)(=O)CCC2` had a half-life of 29.5 min and a microsomal CLint of 57 µL/min/mg. In addition, in data set [1] (microsomes), the Remaining is listed as 37% and the “Remaining (without cofactor)” value worked out at 92%. In data set [2], the half-life came to 8.1 min, the microsomal CLint was determined as 207 µL/min/mg, the Remaining was determined as 3% and the “Remaining (without cofactor)” value turned out to be 104%.

On to `CC(C)[C@@H](Nc1ncnc2[nH]ccc12)c1ccc2c(c1)S(=O)(=O)CCO2`, for which, in data set [1], the half-life was 91.3 min and the microsomal CLint is 18 µL/min/mg. Moreover, in data set [1] (microsomes), the Remaining is reported as 74% and the “Remaining (without cofactor)” value was found to be 92%. Besides, in data set [2], the half-life was found to be 24.2 min, the microsomal CLint turned out to be 69 µL/min/mg, the Remaining is 33% and the “Remaining (without cofactor)” value worked out at 111%.

In data set [1], `CC(C)[C@H](Nc1ncnc2[nH]c(-c3cnn(C)c3C#N)cc12)c1ccc2c(c1)NC(=O)CO2` came in with a half-life of 14.6 min and a microsomal CLint of 115 µL/min/mg. In data set [1] (microsomes), the Remaining came to 16% and the “Remaining (without cofactor)” value came to 101%. In addition, in data set [2], the half-life is 20.7 min, the microsomal CLint was 81 µL/min/mg, the Remaining was 27% and the “Remaining (without cofactor)” value worked out at 96%.

On to `Cc1nn(C)cc1-c1cc2c(N[C@H](c3ccc4c(c3)S(=O)(=O)CCC4)C(C)C)ncnc2[nH]1`, for which, in data set [1], the half-life is 6.1 min and the microsomal CLint is 273 µL/min/mg. Besides, in data set [1] (microsomes), the Remaining stood at 1% and the “Remaining (without cofactor)” value was 113%. Also, in data set [2], the half-life was determined as 8.3 min, the microsomal CLint is 202 µL/min/mg, the Remaining amounted to 4% and the “Remaining (without cofactor)” value is listed as 104%.

For the molecule `CCNC(=O)c1cc2c(N[C@@H](c3ccc4c(c3)S(=O)(=O)NCC4)C(C)C)ncnc2[nH]1`, in data set [1], the half-life is 19.7 min and the microsomal CLint worked out at 85 µL/min/mg. Further, in data set [1] (microsomes), the Remaining is on record as 24% and the “Remaining (without cofactor)” value is listed as 107%. In addition, in data set [2], the half-life was found to be 36.8 min, the microsomal CLint was 45 µL/min/mg, the Remaining came out at 49% and the “Remaining (without cofactor)” value is 101%.

For `CC(C)[C@@H](Nc1ncnc2[nH]ccc12)c1ccc2c(c1)S(=O)(=O)CCC2`, in data set [1], the half-life was found to be 44.7 min and the microsomal CLint turned out to be 37 µL/min/mg. In data set [1] (microsomes), the CLint worked out at 21 µL/min/mg; the Remaining was 53% and 69%; the “Remaining (without cofactor)” value was found to be 99%; the T1/2 is given as 78.6 min. Moreover, in data set [2], the CLint was 138 µL/min/mg and 55 µL/min/mg; the “Remaining (without cofactor)” value is 103% and 117%; the T1/2 was 12.1 min and 30.4 min.

As usually defined, the half-life is the time needed for the level to fall by half in the phase considered. A low value points to fast loss. One may read the microsomal CLint as a measure of how fast metabolising enzymes remove a compound, apart from limits set by blood flow.

The values above are taken from ChEMBL document CHEMBL5442168, “ASAP - In vitro liver microsomal stability” (2024).
